Source: US11654140B2, “Treatment of ocular inflammatory diseases using laquinimod” (Active Biotech AB, priority 2012, dated 2023)

Columns and labels:
[1] = tested on: ovalbumin-induced allergic conjunctivitis (late phase reaction) in mice; assay: Ocular active anaphylaxis (late phase) in mice, ovalbumin model, eosinophil infiltration into conjunctiva (Example 2); format: in vivo; details: for Eosinophil density, mean / Inhibition of Eosinophil Infiltration vs. Vehicle: 10 μl topical right eye four times daily Day 8-17, five times Day 18; for Eosinophil density, mean: conjunctiva Day 19
Description: Laquinimod solutions were prepared as in Example 1.
Forty (40) Balb/c albino mice were randomly allocated to five groups of eight animals each. Only the right eyes of each animal were used in this study.
On Days 1 and 8, animals in groups 2-5 were injected once intraperitoneally with 0.2 ml of a mixture comprising 5 μg/ml ovalbumin and 15 mg/ml alum in phosphate buffered saline (PBS; pH 7.3-7.4). Animals of group 1 received a mock sensitization comprising 0.2 ml intraperitoneal injection of PBS only on Days 1 and 8.
Laquinimod or controls were delivered into the right conjunctival sac as follows: • From Day 8 to Day 17, animals were dosed four times daily with 10 μl of either 1% laquinimod, 5% laquinimod, or vehicle. Reference Group 5 was dosed with the same regimen, but starting on Day 15. (**Note: Due to a technical error, four mice from Group 1 (negative vehicle) were not dosed on Day 8 and one mouse from Group 1 (negative vehicle) was not dosed on Day 11. This was deemed not to be a critical error that would affect the outcome of the study so the study was continued). • On Day 18, animals were dosed five times during a three hour period before the second challenge (3 h, 2 h, 1 h, 40 min., and 10 min.).
Allergic conjunctivitis was achieved by a single administration on Day 15 (30 minutes before the treatment regimen) and Day 18 (2 hours after 40 minute treatment) with 10 μl of 5 mg/ml ovalbumin in PBS, pH 7.3-7.4 to the right eyes of all […] in groups 2 through 5. Group 1 was mock challenged with 10 μl PBS only.
On Day 19 (12 h to 24 h after challenge), […] were euthanized using an intraperitoneal injection of pentobarbital. Right eyelids and eyeballs were immediately fixed in Bouin-Hollande solution for 24 hours and embedded in paraffin wax. Fixed samples were cut vertically into 5 to 7 micrometer thick sections with a microtome in two different regions—the bulbar conjunctiva and the fornix and palpebral conjunctiva. Three sections per region were selected for analysis based on the quality of the sectioning. The selected sections were stained with May-Grunwald/acid Giemsa.
After staining, digital images using 200× magnifications were taken with a Leica light microscope. Total area of subconjunctival tissue was measured automatically using the Leica Application Suite (LAS) software. Eosinophils were counted throughout the whole conjunctiva in each of the three sections per sample. The density per square millimeter of eosinophils stained with acid Giemsa was calculated for each specimen. The average cell density per eye was calculated from the results of the […] sections.

[2] = tested on: subject suffering from bacterial conjunctivitis; assay: Laquinimod for treating bacterial conjunctivitis (Example 5); format: in vivo; details: laquinimod composition, once daily
Description: In the examples 4-9 below, the administration of the composition is once daily. The administration can be repeated daily for a period of one, two, three or four days, up to 14 days, or longer as necessary.
A laquinimod composition as described herein is administered to a subject suffering from bacterial conjunctivitis. The administration of the composition is effective to treat the subject suffering from bacterial conjunctivitis. The administration of the composition is also effective to reduce intraocular inflammation in the subject.

`CCN(C(=O)c1c(O)c2c(Cl)cccc2n(C)c1=O)c1ccccc1` [Laquinimod, laquinimod] was tested, and the “Eosinophil density, mean” value ([1]; 1% Laquinimod) was 117.5 cells/mm2, the “Inhibition of Eosinophil Infiltration vs. Vehicle” value ([1]; 1% Laquinimod, not statistically significant) was 48% and the “Inhibition of Eosinophil Infiltration vs. Vehicle” value ([1]; 1% Laquinimod, not statistically significant, listed as laquinimod) was 48%. For the same molecule, the “Eosinophil density, mean” value ([1]; 5% Laquinimod) was 72.5 cells/mm2, the “Inhibition of Eosinophil Infiltration vs. Vehicle” value ([1]; 5% Laquinimod, p 0.0023) was 68% and the “Inhibition of Eosinophil Infiltration vs. Vehicle” value ([1]; 5% Laquinimod, p 0.0023, listed as laquinimod) was 68%. The “late ocular anaphylaxis reaction” value ([1]; multiple topical administrations, statistically significant effect at a dose of 5%) was “inhibited the late ocular anaphylaxis reaction”, the “treat the subject suffering from bacterial conjunctivitis” value [2] was “effective” and the “reduce intraocular inflammation in the subject” value ([2]; bacterial conjunctivitis) was “effective”.
